Test results: US20240166629A1, “HETEROCYCLIC COMPOUNDS CAPABLE OF ACTIVATING STING” (Boehringer Ingelheim International GmbH, priority 2022, published 2024)

How the values were obtained:
[1] = biological target: T1, human STING variant R293Q (Homo sapiens, UniProt Q86WV6, H232R/R293Q); test: THP1-Blue ISG IRF-inducible SEAP reporter assay, STING R293Q-variant; type: cell-based; settings: THP1-Blue ISG hSTING KO cells expressing STING R293Q; 24 hours incubation
T1 construct: expressed in transfected cells; host or cells: THP1-Blue ISG hSTING KO clone, retroviral MSCV-ires-GFP-Blasti
T1 sequence (Q86WV6 whole entry H232R/R293Q): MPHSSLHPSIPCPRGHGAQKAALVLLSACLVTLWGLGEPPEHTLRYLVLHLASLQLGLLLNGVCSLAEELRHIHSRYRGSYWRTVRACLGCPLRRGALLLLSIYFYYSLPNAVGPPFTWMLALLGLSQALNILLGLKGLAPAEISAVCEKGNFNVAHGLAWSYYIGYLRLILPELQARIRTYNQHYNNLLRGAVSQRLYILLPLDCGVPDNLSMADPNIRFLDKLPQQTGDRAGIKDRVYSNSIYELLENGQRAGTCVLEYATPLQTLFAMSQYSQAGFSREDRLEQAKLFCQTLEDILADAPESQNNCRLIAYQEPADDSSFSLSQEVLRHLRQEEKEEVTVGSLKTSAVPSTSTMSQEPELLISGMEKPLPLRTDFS
From the text: (§1) Activation of the STING protein expressed in cell lines results in an increase of interferon production. By the stable integration of an interferon regulatory factor (IRF)-inducible SEAP gene (secreted embryonic alkaline phosphatase) reporter construct the functional interferon signaling pathway can be monitored. Using Invivogen's THP1-Blue™ ISG colorimetric enzyme assay and a suitable optical density (OD) reader the activity of SEAP can be detected and quantified. This technique could be used to characterize pharmacological modification of the STING pathway.
(§2) Several single nucleotide polymorphisms have been identified in the human STING gene. To determine the activity of the above described compounds, THP1-Blue™ ISG reporter cell lines expressing the different human STING variants have been generated. To do so, the endogenous human STING was first deleted using the CRISPR/CAS9 system: THP1-Blue ISG cells were electroporated with ALL-IN-ONE CRISPR plasmids targeting the STING gene (purchased from Sigma encoding the gRNA and GFP as a reporter gene for successful transduction). GFP positive cells then were sorted 24 h post transfection and expanded. Cells were then dispersed in semisolid methocel medium to allow single cell clone isolations. Clones were then screened for cGAMP responsiveness using the Quanti-Blue™ reporter assay. Non-responsive clones were subsequently analysed for STING loss by western blotting and sequencing of the STING locus.
(§3) For the overexpression of the human STING variants, a confirmed THP1-Blue™ ISG hSTING KO clone was transduced with individual retroviral plasmids (MSCV-ires-GFP-Blasti) encoding the allelic variants of hSTING (WT (H232R), HAQ, R232H, AQ and R293Q). Transduced cells were sorted for different levels of GFP fluorescence and STING allele expression was analysed by western blot.
(§4) Measurements of SEAP activity were performed in THP1-Blue™ ISG cells stably expressing the different human STING isoforms and the IRF-inducible SEAP reporter construct. Cells were cultivated in RPMI1640 medium with 10% fetal calf serum, 50 μg/ml Penicillin-Streptomycin, 100 μg/ml Zeocin, and 100 μg/ml Normocin in a 37°, 95% humidity and 5% CO2 incubator.
(§5) In preparation for the assay, the cells were distributed into the assay plates with a density of 10000 cells/15 μL per well. Compounds were prepared by an 8 point serial dilution in 50% aqueous DMSO and a final dilution step into medium to ensure a final DMSO concentration of 0.5% in the assay. 5 μL of diluted compounds were added to the plates, followed by a 24 hours incubation at 37° C.
(§6) At the day of the assay, 75 μl per well of Quanti-Blue™ reagent was added to all wells of the plate and the plate was incubated another 30 minutes at 37° C. The OD at 620 nm was measured on the EnVision reader (PerkinElmer).

in vitro = settings: human, Caco-2, pH 7.4
Description: Caco-2 cells were obtained from Leibniz Institute DSMZ-German Collection of Microorganisms and Cell Cultures (Braunschweig, Germany) and cultured in DMEM (Dulbecco's modified Eagle medium) containing (in final concentrations) 10% FCS (fetal calf serum), 1% NEAA (non-essential amino acids), 2 mM Glutamin, 100 U/mL Penicillin and 100 μg/mL Streptomycin. Caco-2 cells were seeded either onto 24-well Transwell inserts (Corning, #3379) for bidirectional permeability assays at a density of 160,000 cells/cm^2 and cultured for 3 weeks, with media change on every second day.
For bidirectional permeability assays 10 mM DMSO stock solutions were diluted in transport buffer (final concentrations: 128.13 mM NaCl, 5.36 mM KCl, 1 mM MgSO4, 1.8 mM CaCl2, 4.17 mM NaHCO3, 1.19 mM Na2HPO4, 0.41 mM NaH2PO4, 15 mM 2-[4-(2-hydroxyethyl)piperazin-1-yl]ethanesulfonic acid (HEPES), 20 mM glucose, pH 7.4) containing 0.25% bovine serum albumin to a final concentration of 10 μM of the test compounds and added to the apical or basal compartment. Cells were incubated with the compounds for up to 2 h. Samples from the opposite compartment were taken at different timepoints.
Compound concentrations in the compartments were quantified using a RapidFire-based high-throughput HPLC/MS/MS system (high performance liquid chromatography/mass spectrometry; BioCius) that was customized to a fully automated and flexible platform, termed RIAS. In this modified setup, the sample was aspirated by a vacuum pump into a 10 μL sample loop for 250 ms and flushed onto a C4 cartridge (3.8 μL bed volume; BioCius) with the aqueous mobile phase (99.9% water, 0.09% formic acid, and 0.01% TFA; flow rate 1.5 mL/min). Prior to bioanalysis samples were spiked with internal standard solution and diluted with acetonitrile (ACN) for protein precipitation. Measurement was operated in multiplereaction monitoring (MRM) mode. Quantification was performed using external calibration. A solid-phase extraction step retained the analyte for 3000 ms while interfering matrix (e.g., buffer components) was removed. With a simple step gradient, the analyte was back-eluted from the cartridge for 3,000 ms with the organic mobile phase (99.9% acetonitrile/methanol [1:1, v:v], 0.09% formic acid, and 0.01% TFA) and flushed into the mass spectrometer at a flow rate of 1.25 mL/min. Afterwards, the cartridge was reequilibrated with the aqueous mobile phase for 500 ms (flow rate 1.5 mL/min). The RapidFire software and a customized control software were obtained from BioCius. QuickQuan 2.3, Xcalibur 2.0.7, and XDK 2.1.0.25 were used to operate the TSQ Vantage mass spectrometer (ThermoFisher, San Jose, CA) integrated to the RapidFire system. Mass spectral data-processing software QuickCalc 7.1.9 was purchased from ThermoFisher. The Master software for the RIAS was programmed in-house using LabVIEW (version 8.6.1; National Instruments, Austin, TX). Data analysis was performed in AssayExplorer 3.2 (Symyx, Sunnyvale, CA), and correlation plots were visualized in Spotfire version 2.2.0 (TIBCO, Palo Alto, CA).
Apparent permeability coefficients in the apical to basal direction (Papp,AB) and in the basal to apical direction (Papp,BA) and efflux ratios were calculated as follows:
Efflux ratio=Papp,BA/Papp,AB
where Q is the amount of compound recovered in the receiver compartment after the incubation time t, C0 the initial compound concentration given to the donor compartment, and s the surface area of the Transwell inserts. […] In addition, transepithelial electrical resistance (TEER) values are measured for each plate before the permeability assay, and total recovery in donor and receiver compartments was determined for each compound.

human STING variant AQ = biological target: T2, human STING variant AQ (Homo sapiens, UniProt Q86WV6, G230A/H232R/R293Q); test: THP1-Blue ISG IRF-inducible SEAP reporter assay, STING AQ-variant; type: cell-based; settings: THP1-Blue ISG hSTING KO cells expressing STING AQ; 24 hours incubation
T2 construct: expressed in transfected cells; host or cells: THP1-Blue ISG hSTING KO clone, retroviral MSCV-ires-GFP-Blasti
T2 sequence (Q86WV6 whole entry G230A/H232R/R293Q): as the sequence (Q86WV6 whole entry H232R/R293Q) above, with G230A counted along it
From the text: as §1, §2, §3, §4, §5, §6

human STING variant HAQ = biological target: T3, human STING variant HAQ (Homo sapiens, UniProt Q86WV6, G230A/H232R/R293Q/R71H); test: THP1-Blue ISG IRF-inducible SEAP reporter assay, STING HAQ-variant; type: cell-based; settings: THP1-Blue ISG cells expressing STING HAQ (parental or re-introduced); 24 hours incubation; SEAP OD 620 nm
T3 construct: expressed in transfected cells; host or cells: THP1-Blue ISG: either parental cells (endogenous HAQ) or hSTING KO clone retrovirally transduced with HAQ
T3 sequence (Q86WV6 whole entry R71H/G230A/H232R/R293Q): as the sequence (Q86WV6 whole entry H232R/R293Q) above, with R71H, G230A counted along it
From the text: as §1, §2, §3, §4, §5, §6
Data of EC50 values on STING HAQ-variant can be found in table 2a. Shown data below were either derived from the parental THP1-Blue™ ISG cell lines (which express endogenously HAQ) or from genetically engineered THP1-Blue™ ISG cell lines in which first STING has been knocked-out and the HAQ specific STING isoform has been re-introduced as described above.

[2] = biological target: T4, human STING variant R232H (Homo sapiens, UniProt Q86WV6); test: THP1-Blue ISG IRF-inducible SEAP reporter assay, STING R232H-variant; type: cell-based; settings: THP1-Blue ISG hSTING KO cells expressing STING R232H; 24 hours incubation
T4 construct: expressed in transfected cells; host or cells: THP1-Blue ISG hSTING KO clone, retroviral MSCV-ires-GFP-Blasti
T4 sequence (Q86WV6 whole entry, stated change not applied): as the sequence (Q86WV6 whole entry H232R/R293Q) above, with R232H, Q293R counted along it
From the text: as §1, §2, §3, §4, §5, §6

[3] = tested on: Human STING (hSTING, UNIPROT entry Q86WV6, residues 155-341); test: Interaction with hSTING by differential scanning fluorimetry (DSF); type: binding; settings: 100 μM test compound, 5 μM hSTING protein
Description: In DSF, the temperature at which a protein unfolds, also called the melting temperature Tm, is measured by changes in fluorescence of a dye that binds to the hydrophobic parts of the protein. Tm shifts upon binding of a small molecule are correlated with the binding affinity of this small molecule. As target protein, Human STING (hSTING, UNIPROT entry Q86WV6, residues 155-341, MW: 21578.4 Da; protein stock solution: c=1302 μM stock solution in 20 mM Tris, 100 mM NaCl, 2 mM TCEP pH 8.8) was used, as assay buffer 20 mM Tris, 150 mM NaCl pH7.5 was added where and as necessary.
Final concentrations of components in assay: 100 μM test compounds, 5 μM target protein, “5×” SYPR Orange (from stock solution SYPRO orange solution in DMSO (invitrogen cat.-no. 56650-500ul), concentration “5000×”)
Assay Procedure: • 1) Dilutions of compound stock solutions (10 mM in DMSO) were prepared in assay buffer (20 mM Tris, 150 mM NaCl; pH7.5) • 2) 5 μl fluorescent dye stock solution (5000×SYPRO Orange in DMSO) was mixed with 19 μl target protein (1302 μM) and 976 μl assay buffer. • 3) 2 μl of this protein-dye-mixture (25×SYPRO Orange and 25 μM Protein) was added to 8 μl diluted compound solution as prepared in step 1. Final volume was 10 μl. • 4) With every 20 compounds, two negative controls were measured. • 5) The plates were prepared for duplicate measurement and centrifuged for 2 min at 1000 g. • 6) For the measurement, a CFX384 Real-Time System (Bio-Rad) was used. The run consisted of 140 cycles with 0.5° C./cycle (temperature ramp 15 s/cycle, 25° C. to 95° C.).
Data analysis: The melting curves were processed in Bio-Rad CFX Manager. Peak type was set to “negative”. Two replicates of TM (melting temperature) measurements were averaged and the standard deviation was calculated.

[4] = biological target: T5, human STING variant H232R (WT) (Homo sapiens, UniProt Q86WV6, H232R); test: THP1-Blue ISG IRF-inducible SEAP reporter assay, STING H232R-variant; type: cell-based; settings: THP1-Blue ISG hSTING KO cells expressing STING H232R; 24 hours incubation
T5 construct: expressed in transfected cells; host or cells: THP1-Blue ISG hSTING KO clone, retroviral MSCV-ires-GFP-Blasti
T5 sequence (Q86WV6 whole entry H232R): as the sequence (Q86WV6 whole entry H232R/R293Q) above, with Q293R counted along it
From the text: as §1, §2, §3, §4, §5, §6

## Cc1c(Cl)ccc2c(-c3cccc4nn(C)cc34)nn(-c3ccc(N4C[C@@H]5[C@H](C4)[C@H]5C(=O)O)nc3)c12 [compound 8, (1R,5S,6r)-3-(5-(6-chloro-2′,7-dimethyl-1H,2′H-[3,4′-biindazol]-1-yl)pyridin-2-yl)-3-azabicyclo[3.1.0]hexane-6-carboxylic acid]
[1]
  EC50: 100 nM
In vitro
  Papp A→B at 10 μM: 11 ×10⁻⁶ cm/s
  efflux ratio at 10 μM: 1.4
Human STING variant AQ
  EC50: 100 nM
Human STING variant HAQ
  EC50: 100 nM
[2]
  EC50: 100 nM
[3]
  TM (changes in TM, thermal shift): 22 K
[4]
  EC50: 100 nM
